Each molecule was assayed against T1, human EHMT2 913-1193 (Homo sapiens, UniProt Q96KQ7) (assay: EHMT2 enzyme assay on histone peptide substrate (EHMT2 PEP)). Settings: recombinant human EHMT2 913-1193, histone H3 1-15 peptide, balanced conditions; read-out: EHMT2 PEP (IC50 μM).
T1 construct: recombinant purified human EHMT2 913-1193, Viva; purchased Viva
T1 sequence (Q96KQ7 913-1193): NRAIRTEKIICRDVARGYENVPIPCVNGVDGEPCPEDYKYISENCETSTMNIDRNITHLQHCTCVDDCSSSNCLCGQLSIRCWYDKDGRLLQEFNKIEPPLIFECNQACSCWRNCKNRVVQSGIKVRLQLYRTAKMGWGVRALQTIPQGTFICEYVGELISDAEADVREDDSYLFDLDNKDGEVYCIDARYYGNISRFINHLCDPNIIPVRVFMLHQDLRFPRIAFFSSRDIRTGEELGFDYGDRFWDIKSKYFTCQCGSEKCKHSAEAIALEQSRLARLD
Format: biochemical
Outline: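 Inhibition is measured as reduced tritium incorporation into a biotinylated histone peptide from ^3H-SAM. The enzyme (0.031 nM) sees compound for 30 minutes before a 60-minute room-temperature reaction, which unlabeled SAM quenches prior to streptavidin Flashplate capture.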

Row | SMILES | IC50 [µM]
1 | CNc1ccnc(Nc2ccc(OC)c(OCCOC3CC3)c2)n1 [Compound 453, N^2-(3-(2-cyclopropoxyethoxy)-4-methoxyphenyl)-N^4-methylpyrimidine-2,4-diamine] | > 10
2 | CNc1cc(C)nc(Nc2ccc(OC)c(OC3CCN(C)CC3)c2)n1 [Compound 455] | > 10
3 | COc1cnc(Nc2nc(C)cc3[nH]ncc23)cc1OCCCN1CCCC1 [Compound 460, N-(5-methoxy-4-(3-(pyrrolidin-1-yl)propoxy)pyridine-2-yl)-6-methyl-1H-pyrazolo[4,3-c]pyridine-4-amine] | < 0.1
4 | CNc1cc(C)nc(Nc2ccc(OC)c(OCC3CCN(CCO)C3)c2)n1 (centres unmarked) [Compound 461, 2-(3-((2-methoxy-5-((4-methyl-6-(methylamino)pyrimidin-2-yl)amino)phenoxy)methyl)pyrrolidin-1-yl)ethan-1-ol] | < 0.1
5 | COc1ccc(Nc2nc(C)cc(NCC3CCOCC3)n2)cc1OCC1CCN(C2CC2)C1 (centres unmarked) [Compound 462, N^2-(3-((1-cyclopropylpyrrolidin-3-yl)methoxy)-4-methoxyphenyl)-6-methyl-N^4-((tetrahydro-2H-pyran-4-yl)methyl)pyrimidine-2,4-diamine] | < 0.1
6 | CNc1cc(C)nc(Nc2ccc(OC)c(OC[C@H]3C[C@H](N(C)C)C3)c2)n1 [Compound 470] | > 10
7 | CCn1nc(Nc2nccc3[nH]ccc23)cc1COCCN1CCCC1 [Compound 471] | 1 to 10
8 | CNc1cc(Nc2cc(OC[C@@H]3CCN(C)C3)c(OC)cn2)nc(C)n1 [Compound 473] | 1 to 10
9 | CNc1cc(C)nc(Nc2cc(OC[C@@H]3CCN(C)C3)c(OC)cn2)c1 [Compound 475] | 0.1 to 1
10 | CNc1ccnc(Nc2ccc(OC)c(OC[C@@H]3CN(C)C[C@@H]3C)c2)n1 [Compound 477] | 0.1 to 1
11 | CNc1cc(C(C)C)nc(Nc2ccc(OC)c(OCCCN3CCCC3)c2)n1 [Compound 483] | < 0.1
12 | COc1ccc(Nc2nc(C)cc3[nH]ccc23)cc1OCCCN1CCCC1 [Compound 486] | > 10
13 | CNc1cc(C)nc(Nc2ccc(OC)c(OCCCN3CCC3)c2)n1 [Compound 490] | < 0.1
14 | CNc1cc(C)nc(Nc2ccc(OC)c(OC[C@@H]3CN(C)C[C@@H]3O)c2)n1 [Compound 492] | 0.1 to 1
15 | CNc1cc(C)nc(Nc2cc(Cl)c(OC)c(OCCCN3CCCC3)c2)n1 [Compound 496] | 1 to 10
16 | CNc1cc(C)nc(Nc2ccc(OC)c(OCCCN3CCCC3C)c2)n1 (centres unmarked) [Compound 504, N^2-(4-methoxy-3-(3-(2-methylpyrrolidin-1-yl)propoxy)phenyl)-N^4,6-dimethylpyrimidine-2,4-diamine] | 0.1 to 1
17 | CNc1cc(C)nc(Nc2ccc(OC)c(OCCCN3CC4CC4C3)c2)n1 (centres unmarked) [Compound 506] | < 0.1
18 | COc1cnc(Nc2nccc3[nH]ccc23)cc1OCCCN1CC2CC2C1 (centres unmarked) [Compound 507] | < 0.1
19 | CNc1cc(C)nc(Nc2ccc(OC)c(OCCC3CN(C)C3)c2)n1 [Compound 508] | 1 to 10
20 | CNc1cc(Nc2cc(OCCCN3CC4CC4C3)c(OC)cn2)nc(C)c1F (centres unmarked) [Compound 509] | 0.1 to 1
21 | CNc1cc(C)nc(Nc2cnc(OC)c(OCCCN3CC4CC4C3)c2)n1 (centres unmarked) [Compound 514] | 0.1 to 1
22 | CNc1cc(C)nc(Nc2cnc(C3CC3)c(OCCCN3CCCC3)c2)n1 [Compound 516] | 1 to 10
23 | CNc1nc(C2CCCC2)c2cc(OC)c(OCCCN3CCCC3)cc2n1 [Compound 518, 4-cyclopentyl-6-methoxy-N-methyl-7-(3-(pyrrolidin-1-yl)propoxy)quinazolin-2-amine] | 1 to 10
24 | CNc1nc(C2CCNCC2)c2cc(OC)c(OCCCN3CCCC3)cc2n1 [Compound 520] | < 0.1
25 | CNc1nc(C2CCOCC2)c2cc(OC)c(OCCCN3CCCC3)cc2n1 [Compound 521] | 1 to 10
26 | CNc1nc(C2CCCCC2)c2cc(OC)c(OCCCN3CCCC3)cc2n1 [Compound 523, 4-cyclohexyl-6-methoxy-N-methyl-7-(3-(pyrrolidin-1-yl)propoxy)quinazolin-2-amine] | 1 to 10
27 | CNc1cc(C2CCOCC2)c2cc(OC)c(OCCCN3CCCC3)cc2n1 [Compound 524, 6-methoxy-N-methyl-4-(oxan-4-yl)-7-[3-(pyrrolidin-1-yl)propoxy]quinolin-2-amine] | < 0.1

Now from value to molecule:

Row | IC50 [µM] | SMILES
28 | < 0.1 | CNc1cc(C)nc(Nc2ccc(OC)c(OC[C@@H]3CCN(C4CC4)C3)c2)n1 (single isomer, unassigned) [Compound 481]
29 | 0.1 to 1 | CNc1cc(C)nc(Nc2ccc(OC)c(OC[C@H]3CCN(C4CC4)C3)c2)n1 (single isomer, unassigned) [Compound 482]
30 | 1 to 10 | CNc1cc(C)nc(Nc2ccc(OC)c(OCC3CCN(C4CCCC4)C3)c2)n1 (centres unmarked) [Compound 456, N^2-(3-((1-cyclopentylpyrrolidin-3-yl)methoxy)-4-methoxyphenyl)-N^4,6-dimethylpyrimidine-2,4-diamine]
31 | < 0.1 | CNc1cc(C)nc(Nc2ccc(OC)c(OCC3CCN(C4CC4)C3)c2)n1 (centres unmarked) [Compound 457]
32 | 0.1 to 1 | CNc1cc(C2CCCC2)nc(Nc2ccc(OC)c(OCCCN3CCCC3)c2)n1 [Compound 458, 6-cyclopentyl-N^2-(4-methoxy-3-(3-(pyrrolidin-1-yl)propoxy)phenyl)-N^4-methylpyrimidine-2,4-diamine]
33 | 1 to 10 | CNc1cc(C2CCOCC2)nc(Nc2ccc(OC)c(OCCCN3CCCC3)c2)n1 [Compound 459, N^2-(4-methoxy-3-(3-(pyrrolidin-1-yl)propoxy)phenyl)-N^4-methyl-6-(tetrahydro-2H-pyran-4-yl)pyrimidine-2,4-diamine]
34 | < 0.1 | CNc1cc(C)nc(Nc2ccc(OC)c(OCCCN(C)C3CC3)c2)n1 [Compound 463, N^2-(3-(3-(cyclopropyl(methyl)amino)propoxy)-4-methoxyphenyl)-N^4,6-dimethylpyrimidine-2,4-diamine]
35 | 0.1 to 1 | COc1cnc(Nc2cc(NCC3CCOCC3)cc(C)n2)cc1OCCCN1CCCC1 [Compound 464, N^2-(5-methoxy-4-(3-(pyrrolidin-1-yl)propoxy)pyridin-2-yl)-6-methyl-N^4-((tetrahydro-2H-pyran-4-yl)methyl)pyridine-2,4-diamine]
36 | < 0.1 | CNc1cc(C)nc(Nc2ccc(OC)c(OCCCN3CC(O)C3)c2)n1 [Compound 465, 1-(3-(2-methoxy-5-((4-methyl-6-(methylamino)pyrimidin-2-yl)amino)phenoxy)propyl)azetidin-3-ol]
37 | > 10 | CNc1cc(C)nc(Nc2ccc(OC)c(OC3CCN(C4CC4)CC3)c2)n1 [Compound 466, N^2-(3-((1-cyclopropylpiperidin-4-yl)oxy)-4-methoxyphenyl)-N^4,6-dimethylpyrimidine-2,4-diamine]
38 | 1 to 10 | CNc1cc(C)nc(Nc2ccc(OC)c(OC[C@H]3C[C@@H](N(C)C)C3)c2)n1 [Compound 468]
39 | > 10 | CNc1ccnc(Nc2ccc(OC)c(OCc3nnc(C4CC4)[nH]3)c2)n1 [Compound 478]
40 | > 10 | CNc1ccnc(Nc2ccc(OC)c(OCc3ncn(C4CC4)n3)c2)n1 [Compound 480]
41 | < 0.1 | COc1cnc(Nc2nc(C)cc3[nH]c(C)cc23)cc1OCCCN1CCCC1 [Compound 485]
42 | 1 to 10 | CNc1cc(C)nc(Nc2ccc(OC)c([C@H]3C[C@@H]3CN(C)C)c2)n1 [Compound 487]
43 | 0.1 to 1 | CNc1cc(C)nc(Nc2ccc(OC)c([C@H]3C[C@H]3CN(C)C)c2)n1 [Compound 488]

Row | IC50 [µM] | SMILES
44 | 1 to 10 | CNc1cc(C)nc(Nc2ccc(OC)c(OC(C#N)CCN3CCCC3)c2)n1 (centres unmarked) [Compound 489]
45 | 0.1 to 1 | CNc1cc(C)nc(Nc2ccc(OC)c(OC[C@@H]3CN(C)C[C@H]3O)c2)n1 [Compound 491]
46 | < 0.1 | COc1cnc(Nc2nc(C)cc3[nH]ccc23)cc1OCC1CCN(C2CC2)C1 (centres unmarked) [Compound 494]
47 | 0.1 to 1 | COc1cnc(Nc2nc(C)cc3[nH]ccc23)cc1OC[C@H]1CCN(C2CC2)C1 [Compound 494a]
48 | 0.1 to 1 | COc1cnc(Nc2nc(C)cc3[nH]ccc23)cc1OC[C@@H]1CCN(C2CC2)C1 [Compound 495]
49 | 0.1 to 1 | CCc1ccc(Nc2nc(C)cc(NC)n2)cc1OCCCN1CCCC1 [Compound 497]
50 | 1 to 10 | CNc1cc(C)nc(Nc2ccc(OC)c(OCCCN3CCC4(CC4)C3)c2)n1 [Compound 498, N^2-(3-(3-(5-azaspiro[2.4]heptan-5-yl)propoxy)-4-methoxyphenyl)-N^4,6-dimethylpyrimidine-2,4-diamine]
51 | 1 to 10 | CNc1cc(C)nc(Nc2ccc(OC)c(OCCCCN(C)C)c2)n1 [Compound 502]
52 | 1 to 10 | CNc1cc(C)nc(Nc2ccc(OC)c(OCCC3CCN(C)C3)c2)n1 (centres unmarked) [Compound 503]
53 | 0.1 to 1 | CNc1cc(C)nc(Nc2ccc(OC)c(OCC3CN(C4CC4)C3)c2)n1 [Compound 510]
54 | < 0.1 | CNc1cc(C)nc(Nc2cnc(OC)c(OC[C@@H]3CCN(C4CC4)C3)c2)n1 [Compound 512]
55 | 1 to 10 | CCc1ncc(Nc2nc(C)cc(NC)n2)cc1OCCCN1CCCC1 [Compound 515]
56 | 0.1 to 1 | CNc1cc(C)nc(Nc2ccc(OC)c(OCC3CCCN(C4CC4)C3)c2)n1 (centres unmarked) [Compound 517a]
57 | 0.1 to 1 | CNc1cc(C)nc(Nc2ccc(OC)c(OC[C@H]3CCCN(C4CC4)C3)c2)n1 [Compound 517b]
58 | 0.1 to 1 | CNc1nc(C2CCN(C(C)=O)CC2)c2cc(OC)c(OCCCN3CCCC3)cc2n1 [Compound 519]
59 | 1 to 10 | CNc1nc(C2=CCOCC2)c2cc(OC)c(OCCCN3CCCC3)cc2n1 [Compound 522]

Source: US20210198277A1, “AMINE-SUBSTITUTED ARYL OR HETEROARYL COMPOUNDS” (Epizyme, Inc., priority 2016, published 2021)
